Test results published in patent US20120258944A1, “ANTIOXIDANTS FOR USE IN THERAPY” (priority 2009, published 2012).

Key:
PLB985 cells = test: Resazurin based in vitro toxicology assay (TOX8); format: cell-based, human; conditions: PLB985, 3 hours, 120 μM
Experimental: The viability of cells treated with the compounds was also analyzed using a Resazurin based in vitro Toxicology Assay Kit (SigmaAldrich TOX8). Resazurin systems measure the metabolic activity of living cell. Resazurin in its oxidized form (blue) is reduced (red) by living cells and the amount of dye conversion is measured fluorometrically or spectrophotometrically indicating the degree of cytotoxicity.
1) 75 micro-l of PLB985 cells (1 million cells/ml) is mixed with 25 micro-l of Compounds 1, 2, 3 and D (480, 120, 15 and 0.48 micro-M) in a 96 well plate in duplicates. 2) 10 micro-L of Resazurin solution is added to each well and the plate is incubated at 37° C. for 3 hours. 3) Spectrophotometrical analysis is performed in plate reader at 600 and 690 nm.
FIG. 18: Cell viability of compounds in human PLB-985 cell line. Concentrations of compounds 120; 60; 30; 3.75; 0.12 and […] final concentrations. Measurement that indicates cell cytotoxicity (In vitro toxicology assay, TOX-8). The bars show increased level of cytotoxicity (analysis of absorbance of 600 nm substracted with absorbance 690 nm).

[1] = tested on: human umbilical vein endothelial cells (HUVEC); test: Visual evaluation of HUVECs under the microscope (dislodging from the surface); conditions: HUVEC
Experimental: Cells were harvested and resuspended in supplemented medium 200 without phenol red. 50 000 cells were added in duplicates to 96-well plates. The compounds were tested on HUVECs according to the following concentrations.
The compounds were diluted in Medium 200 from the 0.1M stock solution. The toxic effects of the compounds were tested after 24 hrs, 48 hrs and 72 hrs.
By visually looking at the cells under the microscope and estimating the dislodging from the surface, the state of the cells was evaluated.

[2] = tested on: human Neutrophils and human PBMCs; test: Intracellular ROS, luminol luminescence with SOD and catalase, PMA or fMLF stimulated cells; format: cell-based; conditions: PMA or fMLF 30 ng/ml; compounds 120, 60, 30 microM; FIG. 5-8
Experimental: (§1) Validation was performed by stimulating cells with PMA and fMLF. When treated with the antioxidants, altered level of ROS production from the cells was measured using luminometry. Both intracellular and extracellular effect on ROS on the cells was analyzed using isoluminol (extracellular) and luminol (intracellular when co-administered with SOD and catalase) (Dahlgren et al. “Respiratory burst in human neutrophils”, Journal of Immunological Methods 232 1999; 3-14).
The luminol reagent buffer is made of HBSS buffer (with Ca^2+), luminol and SOD/Catalase.
(§2) 1) Add 25 microL of antioxidants to assay plate to get proper concentrations in a total reaction volume of 100 micro-L. 2) Add 25 microL of PMA (120 ng/ml) and fMLF (120 ng/ml) to assay plate to get concentration of 30 ng/ml in a total reaction volume of 100 microL. 3) Add 50 microL of cell suspension (2 million cells/ml) to each well. Immediately after addition of cell suspension initiate luminescence measurement; the reaction starts at once when the cells are added to the assay plate. Measurement points are taken at 1-minute intervals for 25 minutes. Data is presented as AUC (Area Under Curve) by a summary of all collected measurements for each well.
FIG. 5: Intracellular ROS analyzed by Luminol (intracellular ROS) induced luminescence in human Neutrophils. ROS induced with PMA (30 ng/ml) with 200, 100 or 0 microM NAC. Concentrations of compounds 120, 60, 30 and 0 microM final concentrations.
FIG. 6: Intracellular ROS analyzed by Luminol (intracellular ROS) induced luminescence in human Neutrophils. ROS induced with fMLF (30 ng/ml) with 200, 100 or 0 microM NAC. Concentrations of compounds 120, 60, 30 and 0 microM final concentrations.
FIG. 7: Intracellular ROS analyzed by Luminol (intracellular ROS) induced luminescence in human PBMCs. ROS induced with PMA (30 ng/ml) with 200, 100 or 0 microM NAC. Concentrations of compounds 120, 60, 30 and 0 microM final concentrations.
FIG. 8: Intracellular ROS analyzed by Luminol (intracellular ROS) induced luminescence in human PBMCs. […]

[3] = cited from earlier work; for Inhibited Rate of Linoleic Acid Peroxidation (Rinh): two-phase model, N-acetylcysteine in the aqueous phase
[4] = tested on: human neutrophils and PBMCs, rat neutrophils and PBMCs, human PLB-985 cell line; test: Extracellular ROS, isoluminol luminescence, PMA or fMLF stimulated cells; format: cell-based; conditions: PMA or fMLF 30 ng/ml; compounds 120 to 0 microM; FIG. 1-4, 9-12, 14-17
Experimental: as §1
The isoluminol reagent buffer was made of HBSS buffer (with Ca^2+), Isoluminol and HRP.
as §2
FIG. 1: Extracellular ROS analyzed by Isoluminol induced luminescence in human Neutrophils. ROS induced with PMA (30 ng/ml) with 200, 100 or 0 microM NAC. Concentrations of compounds 120, 60, 30 and 0 microM final concentrations.
FIG. 9: Extracellular ROS analyzed by Isoluminol induced luminescence in rat Neutrophils. ROS induced with PMA (30 ng/ml) with 200, 100 or 0 microM NAC. Concentrations of compounds 120, 60, 30 and 0 microM final concentrations.
FIG. 11: Extracellular ROS analyzed by Isoluminol induced luminescence in human PLB-985 cell line. ROS induced with PMA (30 ng/ml) with 200, 100 or 0 microM NAC. Concentrations of compounds 120, 60, 30 and 0 microM final concentrations.

[5] = tested on: human umbilical vein endothelial cells (HUVEC); test: XTT in vitro toxicology test in human umbilical vein endothelial cells; format: cell-based; conditions: for toxic concentration: HUVEC; for relative toxicity among the compounds: human endothelial cells, up to 72 hours
Experimental: As a negative control, cells incubated with medium containing 0.5% DMSO (corresponding to the highest DMSO concentration above) was used. As a positive control, cells were incubated in the presence of 20% EtOH.
After the incubation with the compounds, the wells were washed with PBS to remove substances which could interfere with the assay. 40 μl of fresh medium 200 without phenol red was added together with 10 μl XTT substance (according to the manufacturer's instructions). The plates were incubated for 8 hrs and the colour development was monitored by measuring the absorbance at 450 nm.
After incubation, the number of viable cells was assessed by observing the amount of metabolized XTT (2,3-bis[2-methoxy-4-nitro-5-sulphophenyl]-2H-tetrazolium-5-carboxyanilide inner salt).

kidney slice = test: Organ model TBARS experiment (TBA-MDA assay) in kidney slices
[6] = ABTS radical cation assay (TEAC) in aqueous PBS buffer; conditions: 6.08 micro-M, PBS buffer pH 7.4, after 5 min
Experimental: In order to investigate its aqueous phase performance, we thought that it would be interesting to determine its Trolox Equivalent Antioxidant Capacity (TEAC) (Free Rad. Biol. Med. 1999, 26, 1231-1237) which has been used to quantify the antioxidant activity of biological fluids, extracts and pure compounds. The TEAC value is defined as the concentration of Trolox which has an equivalent antioxidant potential as a 1 mM solution of the compound under investigation (Free Rad. Biol. Med. 1996, 20, 933-956).
A 2,2′-azinobis(3-ethylbenzothiazoline-6 sulphonic acid radical cation (ABTS•+) assay was used to determine relative TEAC values. To a preformed solution of ABTS•+ in PBS buffer, pH 7.4, with an absorbance slightly above 0.7 were added various amounts (3-30 microM) of organoselenium compound 1, Trolox, sodium ascorbate and N-acetylcysteine. The absorbance at 734 inn was recorded immediately after mixing and then every minute for the next 8 minutes.
Antioxidant activity as determined by the capacity of the antioxidant to decolorize the ABTS^+ radical cation was determined essentially as described in the literature (Acc. Chem. Res. 1986, 19, 194-201). […] In a typical experiment, the antioxidant (1.52 micro-L of a 3.00 mM solution in MeOH or water; final concentration=6.08 micro-M) was syringed into 0.750 mL of the ABTS^+ radical cation solution. After initial mixing, the absorbance was recorded every minute for the next eight minutes.

[7] = tested on: MG-63, HEK-293, SHSY-5y, MRC-5 and CaCo-2-cells; test: Alamar Blue cell viability/proliferation assay; format: cell-based, human; conditions: 60 micro-M, day 1 to day 7
Text: Alamar Blue is a non-toxic metabolic indicator for viable cells. Following uptake, the dye becomes reduced and causes a change in the colour of the cell. The colour change correlates reasonably well with the number of living cells in the sample.
Cells w/o antioxidant were used as controls.
Alamar Blue is a non-toxic metabolic indicator for viable cells. Upon uptake into the cell the dye becomes reduced and changes colour. The colour change correlates approximately with the number of living cells in the sample.

liver microsomes = conditions: cited from earlier work
[8] = coupled reductase method; cited from earlier work

## CC[Te]c1nc(C)cc(C)c1O [Comparative Compound 2]
PLB985 cells
  cell viability at highest concentration: decrease in cell viability
[1]; 24 hrs
  concentration at which cells were affected (visual): 500 µM
[1]; 48 hrs
  concentration at which cells were affected (visual): 200 µM
[2]
  antioxidative effect on intracellular ROS: lesser effect
[3]
  Inhibited Rate of Linoleic Acid Peroxidation (Rinh): 22 µM/h
[4]
  antioxidative effect on extracellular ROS: less potent
[5]; 24 hrs incubation
  toxic concentration: 500 µM
[5]; 48 hrs incubation
  toxic concentration: 200 µM
[5]; 72 hrs incubation
  toxic concentration: 200 µM
[5]
  relative toxicity among the compounds: slightly more toxic than Compounds 1

## CCCCCCCC[Te]c1nc(C)cc(C)c1O [Comparative Compound 3]
PLB985 cells
  cell viability at highest concentration: decrease in cell viability
[1]; 24 hrs
  concentration at which cells were affected (visual): 100 µM
[2]
  antioxidative effect on intracellular ROS: lesser effect
[3]
  Inhibited Rate of Linoleic Acid Peroxidation (Rinh): 8 µM/h
[4]
  antioxidative effect on extracellular ROS: less potent
[5]; 24 hrs incubation
  toxic concentration: 100 µM
[5]; 48 hrs incubation
  toxic concentration: 100 µM
[5]; 72 hrs incubation
  toxic concentration: 100 µM
[5]
  relative toxicity among the compounds: most toxic compound

## Cc1cc2c(c(C)c1O)CC(C)[Se]2 (stereo not shown) [Compound 6]
Kidney slice
  potency as inhibitor of TBARS production compared with references: more potent inhibitors of TBARS production than Trolox and N-acetylcysteine
Kidney slice; re-oxygenation after Argon
  concentration able to inhibit 50% of the TBARS formation in the control incubation: sub-micromolar

## CC(=O)N[C@@H](CS)C(=O)O [N-acetylcysteine]
[6]
  TEAC value: 2.4

## Cc1c(C)c2c(c(C)c1O)CCC(C)(C(=O)O)O2 (stereo not shown) [Trolox]
[7]
  cell growth (Alamar Blue): normal cell growth patterns

## Oc1ccc2c(c1)CCO2 [X═O]
Liver microsomes
  inhibition of lipid peroxidation in liver microsomes: not effective

## Oc1ccc2c(c1)CCS2 [X═S]
Liver microsomes
  inhibition of lipid peroxidation in liver microsomes: not effective

## Oc1ccc2c(c1)CC[Se]2 [X═Se]
Liver microsomes
  inhibition of lipid peroxidation in liver microsomes: not effective
[8]
  catalyst activity in the reaction between glutathione and hydroperoxide (thiol peroxidase activity): insignificant
[3]; two-phase system, absence of thiol reducing agent
  inhibition of azo-initiated peroxidation of linoleic acid: poor inhibitor

## Oc1ccc2c(c1)CC[Te]2 [X═Te]
Liver microsomes
  inhibition of lipid peroxidation in liver microsomes: potent inhibitor
[8]
  catalyst activity in the reaction between glutathione and hydroperoxide (thiol peroxidase activity): highly active catalyst
[3]; two-phase system, presence of a reducing agent
  antioxidant capacity: best antioxidant capacity
